Assay results: US8728978B2, “Biocide compositions (IV)” (Cognis IP Management GmbH, priority 2009, dated 2014)

Assay: Solubility of biocides in different solvents at 25° C.
Format: physicochemical
Experimental: Solubility of two fungicides, one herbicide and one insecticide in different solvents at 25° C. was tested.

[1] = solvent: C8-C10 fatty acid dimethylamide (Ex. C3)
[2] = solvent: Lactic acid dimethyl amide (Ex. C4)
[3] = solvent: Levulinic acid tetrahydrofurfuryl ester (Ex. 7)

## O=C(NC(=O)c1c(F)cccc1F)Nc1ccc(OC(F)(F)C(F)OC(F)(F)F)c(Cl)c1 (stereo not drawn) [Novaluron]
[1]
  Solubility of biocides: 32 % b.w.
[2]
  Solubility of biocides: 22 % b.w.
[3]
  Solubility of biocides: 24 % b.w.

## CCOc1cc(Oc2ccc(C(F)(F)F)cc2Cl)ccc1[N+](=O)[O-] [Oxyfluorfen]
[1]
  Solubility of biocides: 31 % b.w.
[2]
  Solubility of biocides: 23 % b.w.
[3]
  Solubility of biocides: 33 % b.w.
